Molecules are shown by their SMILES. “Also recorded” adds a separate entry of the source. Like-named read-outs stand apart in the source and are kept apart here.

The subject of test [1] is Human neutrophils from healthy volunteers. The test is described as follows: NETosis quantitation by CNN image analysis in adherent neutrophils from healthy volunteers. The class given is cell-based. The conditions noted are these: read-out: EC50 (concentration inducing 50% of neutrophils to undergo NETosis). The text has this:
This specification describes an assay for the assessment of 1) the EC50 of NETotic agonists in adherent human neutrophils and 2) the NETosis mechanism specific to these agonists. Neutrophils were isolated from peripheral blood of healthy volunteers and allowed to adhere to 96-well plates before stimulation with different concentrations of agonists. We established our assay with two widely used agonists, PMA, a PKC activator and A23187, a Ca+2 ionophore. NETosis data were acquired using the automated BD Pathway 855 Bio-imaging Systems. An image processing algorithm was created to distinguish two populations related to neutrophil nuclear size, intensity and texture. Our assay is the first to describe a semi-automated imaging and analysis method for the study of NETosis and is a positive step towards standardizing the quantitation of NETosis in isolated cells. This assay has potential applications in screening novel pharmaceuticals and in analyzing cells from patients with various diseases.
Adherent neutrophils were treated for 2 hours with either agonist or DMSO vehicle. DMSO treatment alone causes neutrophil NETosis reaching a maximum response of 30% with 0.16% DMSO. The resulting NETotic nuclei are visually indistinguishable from those observed with PMA- or A23187-treatments as shown graph 204. DMSO is the recommended solvent for both PMA and A23187. […]

The test system of test [2] is neutrophils from SCD patients. The test can be described thus: NETosis quantitation by CNN image analysis in neutrophils from SCD patients at steady-state. Particulars: SCD patients at steady-state (n=7), 2 hours treatment, two-way ANOVA. The class given is cell-based, human. The text has this: We next applied this assay to an inflammatory disease that has been suspected of being influenced by NETosis; patients with sickle cell disease (SCD) suffer chronic inflammation due to recurrent ischemia/reperfusion injuries and are hypercoagulable. The hypercoagulability is thought to be due to at least in part to circulating NETs similar to other inflammatory diseases. Soluble components presumably from NETs (DNA and nucleosomes) are detectible in plasma from both SCD patients and humanized SCD mice^11, 12. Furthermore, neutrophils from healthy individuals exposed to plasma from SCD patients causes NET generation. Because SCD neutrophils function at a reduced capacity for oxidative burst and produce less ROS than non-SCD neutrophils, we asked whether the ROS-dependent NETosis pathway is affected^13-15. Only patients at steady-state were included in the study. […] Reduction of neutrophils' oxidative burst capacity also occurs in conditions such as chronic granulomatous disease (CGD), and results in reduced NETosis^16. The divergence of our results from those previously published are possibly due to our observation of NETosis in neutrophils directly without the use of a surrogate NETosis biomarker.
The same conditions for cell isolation and treatment were used for neutrophils from SCD patients at steady-state (n=7), and the results are shown in graphs 206 and 208. […]

On to `CCCCCCCCCCCCCC(=O)O[C@@H]1[C@@H](C)[C@@]2(O)[C@@H](C=C(CO)C[C@]3(O)C(=O)C(C)=C[C@@H]23)[C@@H]2C(C)(C)[C@]12OC(C)=O` [PMA], for which the EC50 in test [1] (n=11, 2 hours treatment, ROS-dependent pathway) stood at 2.1 nM. In test [2], the “NETosis response of SCD neutrophils compared with non-SCD neutrophils” value is given as “comparatively insensitive; also recorded: responded poorly”.

For the compound `CNc1ccc2oc(C[C@H]3O[C@@]4(CC[C@H]3C)O[C@H]([C@H](C)C(=O)c3ccc[nH]3)[C@H](C)C[C@H]4C)nc2c1C(=O)O` [A23187, Calcimycin], the EC50 in test [1] (Homo sapiens, Neutrophil, n=8, 2 hours treatment, PADIV-dependent pathway) stood at 900 nM. Also, the “NETosis response of SCD neutrophils compared with non-SCD neutrophils” value in test [2] was “responded similarly; also recorded: little difference was observed between SCD and non-SCD”.

Values taken from patent US10303923B1, “Quantitation of NETosis using image analysis” (The University of North Carolina at Chapel Hill, priority 2018, dated 2019).
